Entries after “also recorded” stand apart in the source; their conditions may differ.
Experiments:
Mst3b = Mst3b expression in CYP-CIPN rat epidermis, Western immunoblotting; type: in vivo; conditions: 8-AG 5 mg/kg/day in drinking water
Description: Animals. This study employed female Harlan Sprague Dawley (HSD) rats (3-4 mo; Envigo, Indianapolis, IN) and were divided into the following groups: 1) Control, 2) Cyclophosphamide (CYP, 75 mg/kg i.p. in saline vehicle; administered on days 0, 3 and 6); 3) 8-aminoguanine (8-AG; 5 mg/kg/day in drinking water; beginning 2 weeks prior to CYP and continuing until sacrifice (day 8)). The dose of 8-AG is based on our preliminary and published experiments. […] The investigation conforms to the Guide for the Care and Use of Laboratory Animals published by the US National Institutes of Health (NIH Publication No. 85-23, revised 1996). […]
Western immunoblotting: Following the testing paradigms, rats were deeply anesthetized and tissues (e.g., epidermis, peripheral sciatic nerves, spinal cord segments (L3-L5) and dorsal root ganglia (L3-L5) were removed, and a portion of each preparation was homogenized using Lysing Matrix D in a FASTPREP® 24 instrument (MP Biomedicals, Solon, OH) in HBSS [5 mM KCl, 0.3 mM KH2PO4, 138 mM NaCl, 4 mM NaHO3, 0.3 mM Na2HCO3, 0.3 mM Na2HPO4, 5.6 mM glucose and 10 mM Hepes, pH 7.4 containing complete protease inhibitor cocktail (1 tablet/10 ml, Roche, Indianapolis, IN)] and phosphatase inhibitor cocktail (Sigma, 1:100). […] The protein concentrations of the supernatants were determined using the Pierce BCA protein assay (Thermo Scientific, Rockford, IL). […]

sciatic nerve-crush rats = assay: Von Frey sensory testing after sciatic nerve crush; type: in vivo, rat; conditions: hindpaw footpad, day 2 and day 5 post injury, 8-AG 5 mg/kg/day in drinking water
Description: Animals. This study employed female Harlan Sprague Dawley (HSD) rats (3-4 mo; Envigo, Indianapolis, IN) and were divided into the following groups: 1) Control, 2) Sciatic nerve crush (day 0, sacrifice on day 6); 3) 8-aminoguanine (8-AG; 5 mg/kg/day in drinking water; beginning 2 weeks prior to nerve crush and continuing until sacrifice (day 6)). The dose of 8-AG is based on the work above and published experiments. Further, the water consumption/day was tracked. […] All tissues (hindpaw epidermis) were removed from isoflurane anesthetized rats and the tissue was used for various experimental approaches as described below. At the end of tissue removal, animals were sacrificed by thoracotomy.
Von Frey sensory testing. Control, sciatic nerve crush (one of the most common models of peripheral nerve injury in rodents) and 8-AG-treated sciatic nerve-crush rats were placed in an elevated chamber on a wire mesh floor and after acclimatization, calibrated von Frey microfilaments were applied to determine paw withdrawal threshold (PWT, in grams). Briefly, microfilaments (Stoelting Corp, USA) were applied with different forces perpendicularly to the plantar surface of both ipsilateral and contralateral hindpaw by increasing and decreasing stimulus intensity. […]

Nc1nc2[nH]c(N)nc2c(=O)[nH]1 [8-AG, 8-Aminoguanine]
effect on CYP-induced decrease in Mst3b expression (Mst3b): completely restored; also recorded: completely prevented; also recorded: effective in restoring
effect on injury-induced increase in sensitivity to mechanical stimuli (paw withdrawal threshold) (sciatic nerve-crush rats): restored to control values; also recorded: normalized
effect on injury-induced increase in sensitivity to mechanical stimuli (paw withdrawal threshold) (sciatic nerve-crush rats; listed as 8-Aminoguanine): normalized

Reference: patent US20250127787A1, “METHODS FOR TREATING PERIPHERAL NEUROPATHY” (University of Pittsburgh - Of the Commonwealth System of …, priority 2021, published 2025)
